According to patent publication US20220330549A1, “USE OF N-BENZYLBENZAMIDE-BASED COMPOUND AS HERBICIDE” (Northwest A&F University, priority 2020, published 2022):

Columns and labels:
Type in all cases: in vivo
[1] = tested on: Piemarker; assay: Herbicidal activity test for indoor pre-emergence soil treatment; design: key: level 1-9; higher = more weed remaining vs blank control; conditions: 150 g a.i./ha, visual inspection 21 days after treatment
Experimental: (§1) The herbicidal activity test for indoor pre-emergence soil treatment was performed with some of the N-benzylbenzamide-based compounds of general formula I or II with reference to the method of NY/T 1155.3-2006. Neutral sandy loam soil having an organic content of ≤2% was added to fill ⅘ of the pot, and the soil was completely moistened by infiltrating irrigation from the bottom of the pot. The seeds of the test weed were evenly spread on the soil surface, and then covered by 0.5 cm to 2.0 cm of soil depending on the seed size. Representative compounds in the examples were used to prepare emulsifiable concentrates (10%), and spray treatments to the soil were performed 24 hours after the sowing with the test agents diluted with water, at a spraying dosage of 150 g(a.i.)/ha. Then, the results were investigated by visual inspection 21 days after the treatments. The herbicidal activity of the agent was evaluated on a scale of 1-9 levels according to the symptoms and severity of damage to the test weeds.
(§2) Level 2: equivalent to 0 to 2.5% of the weed in the blank control area;
(§3) Level 3: equivalent to 2.6 to 5% of the weed in the blank control area;
(§4) Level 4: equivalent to 5.1 to 10% of the weed in the blank control area;
(§5) Level 5: equivalent to 10.1 to 15% of the weed in the blank control area;
(§6) Level 6: equivalent to 15.1 to 25% of the weed in the blank control area;
(§7) Level 7: equivalent to 25.1 to 35% of the weed in the blank control area;
(§8) Level 8: equivalent to 35.1 to 67.5% of the weed in the blank control area; and
(§9) Level 9: equivalent to 67.6 to 100% of the weed in the blank control area.

[2] = tested on: green bristlegrass; assay: as above; design: key: level 1-9; higher = more weed remaining vs blank control; conditions: 150 g a.i./ha, visual inspection 21 days after treatment
Experimental: as §1, §2, §3, §4, §5, §6, §7, §8, §9

[3] = tested on: Barnyard grass; assay: as above; design: key: level 1-9; higher = more weed remaining vs blank control; conditions: 150 g a.i./ha, visual inspection 21 days after treatment
Experimental: as §1, §2, §3, §4, §5, §6, §7, §8, §9

[4] = tested on: Piemarker; assay: Herbicidal activity test for indoor post-emergence spraying on stems and leaves; design: key: grade level by weed remaining vs blank control, e.g. 5 = 10.1-15%; conditions: 150 g a.i./ha, visual inspection 21 days after treatment
Experimental: (§10) The post-emergence herbicidal activity test was performed with some of the N-benzylbenzamide-based compounds of general formula I or II with reference to the method of NY/T 1155.4-2006. […] After the sowing, the weed was moved to a greenhouse for regular cultivation. […] Then, the results were investigated by visual inspection 21 days after the treatments. […] Level 5: equivalent to 10.1 to 15% of the weed in the blank control area; Level 6: equivalent to 15.1 to 25% of the weed in the blank control area; Level 7: equivalent to 25.1 to 35% of the weed in the blank control area; Level 8: equivalent to 35.1 to 67.5% of the weed in the blank control area; and […]

[5] = tested on: Amaranthus retroflexus; assay: as above; design: key: grade level by weed remaining vs blank control, e.g. 5 = 10.1-15%; conditions: 150 g a.i./ha, visual inspection 21 days after treatment
Experimental: as §10

[6] = tested on: green bristlegrass; assay: as above; design: key: grade level by weed remaining vs blank control, e.g. 5 = 10.1-15%; conditions: 150 g a.i./ha, visual inspection 21 days after treatment
Experimental: as §10

[7] = tested on: Digitaria sanguinalis; assay: as above; design: key: grade level by weed remaining vs blank control, e.g. 5 = 10.1-15%; conditions: 150 g a.i./ha, visual inspection 21 days after treatment
Experimental: as §10

[8] = tested on: Barnyard grass; assay: as above; design: key: grade level by weed remaining vs blank control, e.g. 5 = 10.1-15%; conditions: 150 g a.i./ha, visual inspection 21 days after treatment
Experimental: as §10

[9] = tested on: Humulus scandens; assay: as above; design: key: grade level by weed remaining vs blank control, e.g. 5 = 10.1-15%; conditions: 150 g a.i./ha, visual inspection 21 days after treatment
Experimental: as §10

[10] = tested on: Amaranthus retroflexus; assay: Herbicidal activity test for indoor pre-emergence soil treatment; design: key: 1-9 levels; higher = more weed remaining vs blank control; conditions: 150 g a.i./ha, visual inspection 21 days after treatment
Experimental: as §1, §2, §3, §4, §5, §6, §7, §8, §9

[11] = tested on: Digitaria sanguinalis; assay: as above; design: key: 1-9 levels; higher = more weed remaining vs blank control; conditions: 150 g a.i./ha, visual inspection 21 days after treatment
Experimental: as §1, §2, §3, §4, §5, §6, §7, §8, §9

[12] = tested on: Humulus scandens; assay: as above; conditions: 150 g a.i./ha, visual inspection 21 days after treatment
Experimental: as §1, §2, §3, §4, §5, §6, §7, §8, §9

[13] = tested on: Broadleaf weed; assay: Post-emergence herbicidal activity test in a paddy field; design: key: level scale; higher level = more weed left vs blank control; conditions: 150 g a.i./ha (penoxsulam control 250 g(a.i.)/h)
Experimental: (§11) The post-emergence herbicidal activity test was performed in a paddy field with some of the N-benzylbenzamide-based compounds of general formula I or II with reference to the method of GB/T 17980.40-2000. […] Spray treatments were performed in the stage where 4 leaves to 5 leaves were grown for the rice seedlings which was about 1 month after the sowing. Representative compounds in the examples were used to prepare emulsifiable concentrates (10%), and spray treatments were performed with the concentrates in water at a dosage of 150 g(a.i.)/ha, and repeated 4 times for each treatment, and the area was 50 m^2. 25 g/L of penoxsulam suspension was used as a control agent and applied at a dosage of 250 g(a.i.)/h. The results were investigated by a value estimating survey method 15 days and 30 days after the treatments. The relative weed population quantities were estimated by comparing each agent treated area with an adjacent blank control area, and the results of which were investigated with the following grading standard method using the overall coverage of the weed population as an indicator.
as §2, §3, §4, §5, §6, §7, §8, §9

[14] = tested on: Gramineae; assay: as above; design: key: level scale; higher level = more weed left vs blank control; conditions: 150 g a.i./ha (penoxsulam control 250 g(a.i.)/h)
Experimental: as §11, §2, §3, §4, §5, §6, §7, §8, §9

[15] = tested on: Cyperaceae; assay: as above; design: key: level scale; higher level = more weed left vs blank control; conditions: 150 g a.i./ha (penoxsulam control 250 g(a.i.)/h)
Experimental: as §11, §2, §3, §4, §5, §6, §7, §8, §9

[16] = tested on: goosegrass; assay: Field test for weed control in a corn field; conditions: 150 g a.i./ha, after treatment
Experimental: (§12) The weed control efficacy field test was performed in a corn field with some of the N-benzylbenzamide-based compounds of general formula I or II with reference to the method of GB/T 17980.42-2000. […] Spray treatments were performed in the stage where 2 leaves to 5 leaves were grown for the corns after the sowing. Representative compounds in the examples were used to prepare emulsifiable concentrates (10%), and spray treatments were performed with the concentrates in water at a dosage of 150 g(a.i.)/ha, and repeated 4 times for each treatment, and the area was 20 m^2. Oil dispersion with 25% of mesotrione was used as a control agent and applied at a dosage of 150 g(a.i.)/h. […] The herbicidal activities of the agents were evaluated on a scale of 1-9 levels according to the symptoms and severity of damage to the test weeds.
as §2, §3, §4, §5, §6, §7, §8, §9

[17] = tested on: Solanum nigrum; assay: Field test for weed control in a corn field; conditions: 150 g a.i./ha, 30 days after treatment
Experimental: as §12, §2, §3, §4, §5, §6, §7, §8, §9

[18] = tested on: Amaranthus retroflexus; assay: Field test for weed control in a corn field; conditions: 150 g a.i./ha, 30 days after treatment
Experimental: as §12, §2, §3, §4, §5, §6, §7, §8, §9

[19] = tested on: green bristlegrass; assay: Field test for weed control in a corn field; conditions: 150 g a.i./ha, after treatment
Experimental: as §12, §2, §3, §4, §5, §6, §7, §8, §9

[20] = tested on: Acalypha australis; assay: Field test for weed control in a corn field; conditions: 150 g a.i./ha, after treatment
Experimental: as §12, §2, §3, §4, §5, §6, §7, §8, §9

[21] = tested on: Digitaria sanguinalis; assay: Field test for weed control in a corn field; conditions: 150 g a.i./ha, after treatment
Experimental: as §12, §2, §3, §4, §5, §6, §7, §8, §9

[22] = tested on: Convolvulus arvensis; assay: Field test for weed control in a corn field; conditions: 150 g a.i./ha, after treatment
Experimental: as §12, §2, §3, §4, §5, §6, §7, §8, §9

[23] = tested on: Chenopodium album; assay: Field test for weed control in a corn field; conditions: 150 g a.i./ha, after treatment
Experimental: as §12, §2, §3, §4, §5, §6, §7, §8, §9

[24] = tested on: Barnyard grass; assay: Field test for weed control in a corn field; conditions: 150 g a.i./ha, 30 days after treatment
Experimental: as §12, §2, §3, §4, §5, §6, §7, §8, §9

[25] = tested on: nutgrass flatsedge; assay: Field test for weed control in a corn field; conditions: 150 g a.i./ha, after treatment
Experimental: as §12, §2, §3, §4, §5, §6, §7, §8, §9

[26] = tested on: Portulaca oleracea; assay: Field test for weed control in a corn field; conditions: 150 g a.i./ha, after treatment
Experimental: as §12, §2, §3, §4, §5, §6, §7, §8, §9

Structure (SMILES) | Herbicidal Activity Piemarker [1] | Herbicidal Activity Green bristlegrass [2] | Herbicidal Activity Barnyard grass [3] | Herbicidal Activity Piemarker [4] | Herbicidal Activity Amaranthus retroflexus [5] | Herbicidal Activity Green bristlegrass [6] | Herbicidal Activity Digitaria sanguinalis [7] | Herbicidal Activity Barnyard grass [8] | Herbicidal Activity Humulus scandens [9] | Herbicidal Activity Amaranthus retroflexus [10] | Herbicidal Activity Digitaria sanguinalis [11] | Herbicidal Activity Humulus scandens [12] | Herbicidal activity 15 days after treatment Broadleaf weed [13] | Herbicidal activity 30 days after treatment Broadleaf weed [13] | Herbicidal activity 15 days after treatment Gramineae [14] | Herbicidal activity 30 days after treatment Gramineae [14] | Herbicidal activity 15 days after treatment Cyperaceae [15] | Herbicidal activity 30 days after treatment Cyperaceae [15] | Post-emergence weed control effect, Goose grass [16] | Post-emergence weed control effect, Solanum nigrum [17] | other results
COc1ccccc1C(=O)NCc1cc(F)cc(Cl)c1 [Compound A07, N-(3-chloro-5-fluorobenzyl)-2-methoxybenzamide] | 1 | 2 (equivalent to 0 to 2.5% of the weed in the blank control area) | 1 | 1 | 1 | 2 (equivalent to 0 to 2.5% of the weed in the blank control area) | 1 | 1 | 1 | 1 | 1 | 3 (equivalent to 2.6 to 5% of the weed in the blank control area) | 2 (equivalent to 0 to 2.5% of the weed in the blank control area) | 1 | 2 (equivalent to 0 to 2.5% of the weed in the blank control area) | 2 (equivalent to 0 to 2.5% of the weed in the blank control area) | 1 | 2 (equivalent to 0 to 2.5% of the weed in the blank control area) | 2 (equivalent to 0 to 2.5% of the weed in the blank control area) | 2 (equivalent to 0 to 2.5% of the weed in the blank control area) | Post-emergence weed control effect, Amaranthus retroflexus [18]: 1; Post-emergence weed control effect, Green bristlegrass [19]: 2 (equivalent to 0 to 2.5% of the weed in the blank control area); Post-emergence weed control effect, Acalypha australis [20]: 2 (equivalent to 0 to 2.5% of the weed in the blank control area); Post-emergence weed control effect, Digitaria sanguinalis [21]: 2 (equivalent to 0 to 2.5% of the weed in the blank control area); Post-emergence weed control effect, Convolvulus arvensis [22]: 1; Post-emergence weed control effect, Chenopodium album [23]: 1; Post-emergence weed control effect, Barnyard grass [24]: 2 (equivalent to 0 to 2.5% of the weed in the blank control area); Post-emergence weed control effect, Nutgrass flatsedge [25]: 2 (equivalent to 0 to 2.5% of the weed in the blank control area); Post-emergence weed control effect, Portulaca oleracea [26]: 1
COc1ccccc1C(=O)NCc1cccc(Cl)c1 [Compound A09, N-(3-chlorobenzyl)-2-methoxybenzamide] | 1 | 2 (equivalent to 0 to 2.5% of the weed in the blank control area) | 1 | 1 | 1 | 2 (equivalent to 0 to 2.5% of the weed in the blank control area) | 1 | 1 | 1 | 2 (equivalent to 0 to 2.5% of the weed in the blank control area) | 2 (equivalent to 0 to 2.5% of the weed in the blank control area) | 3 (equivalent to 2.6 to 5% of the weed in the blank control area) | 2 (equivalent to 0 to 2.5% of the weed in the blank control area) | 2 (equivalent to 0 to 2.5% of the weed in the blank control area) | 2 (equivalent to 0 to 2.5% of the weed in the blank control area) | 2 (equivalent to 0 to 2.5% of the weed in the blank control area) | 1 | 2 (equivalent to 0 to 2.5% of the weed in the blank control area) | 1 | 2 (equivalent to 0 to 2.5% of the weed in the blank control area) | Post-emergence weed control effect, Amaranthus retroflexus [18]: 1; Post-emergence weed control effect, Green bristlegrass [19]: 2 (equivalent to 0 to 2.5% of the weed in the blank control area); Post-emergence weed control effect, Acalypha australis [20]: 2 (equivalent to 0 to 2.5% of the weed in the blank control area); Post-emergence weed control effect, Digitaria sanguinalis [21]: 2 (equivalent to 0 to 2.5% of the weed in the blank control area); Post-emergence weed control effect, Convolvulus arvensis [22]: 2 (equivalent to 0 to 2.5% of the weed in the blank control area); Post-emergence weed control effect, Chenopodium album [23]: 1; Post-emergence weed control effect, Barnyard grass [24]: 2 (equivalent to 0 to 2.5% of the weed in the blank control area); Post-emergence weed control effect, Nutgrass flatsedge [25]: 2 (equivalent to 0 to 2.5% of the weed in the blank control area); Post-emergence weed control effect, Portulaca oleracea [26]: 1
